Reference: patent US10308644B2, “Heterocyclic compounds as immunomodulators” (Incyte Corporation, priority 2016, dated 2019)

biological target: PD-1/PD-L1 (Homo sapiens (Human), UniProt Q9NZQ7); assay: PD-1/PD-L1 Homogeneous Time-Resolved Fluorescence (HTRF) Binding Assay; details: recombinant human PD-1 (3 nM) and PD-L1 (10 nM), 25° C., PBS pH 7.4
How it was run: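 Fc-tagged human PD-1 (25-167, 3 nM) and His-tagged PD-L1 (19-238, 10 nM) preincubated with inhibitor 40 min in PBS pH 7.4, 0.05% Tween-20, 0.1% BSA, 1% DMSO, 25 °C. Binding detected by HTRF (Eu anti-IgG/APC anti-His, 665/620 nm) after 60 min; IC50 from percent control activity.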

Sequence of PD-1/PD-L1 (Q9NZQ7 19-238): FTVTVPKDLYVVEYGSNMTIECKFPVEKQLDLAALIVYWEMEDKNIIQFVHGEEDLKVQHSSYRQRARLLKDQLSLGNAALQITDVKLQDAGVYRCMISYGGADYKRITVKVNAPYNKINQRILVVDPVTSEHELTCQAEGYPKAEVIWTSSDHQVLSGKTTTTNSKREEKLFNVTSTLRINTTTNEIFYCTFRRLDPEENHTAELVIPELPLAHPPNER

IC50, ≤ 10 nM:
Cc1c(-c2nc3c(o2)CN(C(=O)[C@@H]2CCCN2C)C3)cccc1-c1cccc(-c2nc3cc(CN4CC[C@@H](C(=O)O)C4)cc(C#N)c3o2)c1C [Example 124, (R)-1-((7-cyano-2-(2,2′-dimethyl-3′-(5-(methyl-L-prolyl)-5,6-dihydro-4H-pyrrolo[3,4-d]oxazol-2-yl)-[1,1′-biphenyl]-3-yl)benzo[d]oxazol-5-yl)methyl)pyrrolidine-3-carboxylic acid]
Cc1c(-c2nc3cc(CN4CC[C@@](C)(C(=O)O)C4)cc(C#N)c3o2)cccc1-c1cccc(NC(=O)c2nc3c(n2C)CC(C)N(C)C3)c1Cl (stereo partly drawn) [Example 161, (3R)-1-((2-(2′-chloro-2-methyl-3′-(1,5,6-trimethyl-4,5,6,7-tetrahydro-1H-imidazo[4,5-c]pyridine-2-carboxamido)biphenyl-3-yl)-7-cyanobenzo[d]oxazol-5-yl)methyl)-3-methylpyrrolidine-3-carboxylic acid]
Cc1c(-c2nc3cc(CN4CC[C@@H](C(=O)O)C4)cc(Cl)c3o2)cccc1-c1cccc(N2CCC(NCC3(CO)CCC3)CC2)c1Cl [Example 46, (R)-1-((7-chloro-2-(2′-chloro-3′-(4-((1-(hydroxymethyl)cyclobutyl)methylamino)piperidin-1-yl)-2-methylbiphenyl-3-yl)benzo[d]oxazol-5-yl)methyl)pyrrolidine-3-carboxylic acid]
Cc1c(Nc2nccc3cc(CN4CC[C@H](O)C4)cnc23)cccc1-c1cccc(-c2nc3cc(CN4CCC[C@H]4C(=O)O)cc(C#N)c3o2)c1C [Example 35, (S)-1-((7-cyano-2-(3′-(3-(((S)-3-hydroxypyrrolidin-1-yl)methyl)-1,7-naphthyridin-8-ylamino)-2,2′-dimethylbiphenyl-3-yl)benzo[d]oxazol-5-yl)methyl)pyrrolidine-2-carboxylic acid]
Cc1c(NC(=O)c2nc3c(n2C)CCN(C)C3)cccc1-c1cccc(-c2nc3cc(CN4CCC(C(=O)O)CC4)cc(C#N)c3o2)c1C [Example 259, 1-((7-cyano-2-(3′-(1,5-dimethyl-4,5,6,7-tetrahydro-1H-imidazo[4,5-c]pyridine-2-carboxamido)-2,2′-dimethylbiphenyl-3-yl)benzo[d]oxazol-5-yl)methyl)piperidine-4-carboxylic acid]
Cc1c(-c2nc3c(o2)CCNC3)cccc1-c1cccc(-c2nc3cc(CN4CC[C@@H](C(=O)O)C4)cc(Cl)c3o2)c1C [Example 74, (R)-1-((7-chloro-2-(2,2′-dimethyl-3′-(4,5,6,7-tetrahydrooxazolo[4,5-c]pyridin-2-yl)-[1,1′-biphenyl]-3-yl)benzo[d]oxazol-5-yl)methyl)pyrrolidine-3-carboxylic acid]
